Assay results published in article PMC5417501, “Occurrence of urea-based soluble epoxide hydrolase inhibitors from the plants in the order Brassicales” (PLoS ONE, 2017).

Assay: Overnight incubation of thiourea in water at room temperature without papaya seed
Assay type: physicochemical
Details: 10 μM in water

## S=C(NCc1ccccc1)NCc1ccccc1 [1,3-dibenzylthiourea]
  converted into compound 1: Approximately 10%
